# Measured values published in patent US4044043A, “Derivatives of 9-oxo-13-trans-prostenoic acid esters” (American Cyanamid Company, priority 1975, dated 1977).
# System: bronchospasms elicited by 5-hydroxytryptamine
# Experiment: Bronchodilator Activity (Konzett Assay) against 5-hydroxytryptamine
# Format: in vivo, guinea pigs
# Settings: Cavia porcellus; three logarithmic cumulative intravenous doses
# Procedure, shortened: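 Guinea pigs given intravenous spasmogen (5-hydroxytryptamine, histamine or acetylcholine) per Konzett procedure. ED50 derived from three logarithmic cumulative intravenous doses of test compound.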
row,Structure (SMILES),ED50 [mg/kg]
1,"CCC/C=C/[C@H]1CCC(=O)[C@@H]1CCCCCCC(=O)O (relative stereo) [9-oxo-18,19,20-trinor-13-trans-prostenoic acid]",0.484
2,CCCCC/C=C/[C@H]1CCC(=O)[C@@H]1CCCCCCC(=O)O (relative stereo) [9-oxo-20-nor-13-trans-prostenoic acid],0.152
3,"O=C(O)CCCCCC[C@@H]1C(=O)CC[C@H]1/C=C/CCCCl (relative stereo) [20-chloro-9-oxo-17,18,19-trinor-13-trans-prostenoic acid]",1.48
4,CCCCCCC/C=C/[C@@H]1CCC(=O)[C@H]1CCCCCCC(=O)O (relative stereo) [20-methyl-9-oxo-13-trans-prostenoic acid],3.42

# System: diastolic blood pressure
# Experiment: Prostaglandin-like hypotensive activity in anesthetized rats (minimal dose for about 10 mm. decrease in diastolic blood pressure)
# Format: in vivo, Male Wistar strain rats
# Settings: Rattus norvegicus; intravenous; decrease of about 10 mm. in diastolic blood pressure
# Procedure, shortened: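 Male Wistar rats (~250 g), pentobarbital 30 mg./kg. i.v. and hexamethonium 2 mg./kg. i.v., iliac artery cannulated for blood pressure. Compounds in saline-Tween 80 given i.v. at 0.1–10.0 mg./kg.; value is the minimal dose giving ~10 mm. drop in diastolic pressure.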
row,Structure (SMILES),minimal effective dose [mg/kg]
1,CCCCC/C=C/[C@H]1CCC(=O)[C@@H]1CCCCCCC(=O)O (relative stereo) [9-oxo-20-nor-13-trans-prostenoic acid],0.5 to 1
2,"O=C(O)CCCCCC[C@@H]1C(=O)CC[C@H]1/C=C/CCCCl (relative stereo) [20-chloro-9-oxo-17,18,19-trinor-13-trans-prostenoic acid]",2 to 8
3,CCCCCCC/C=C/[C@@H]1CCC(=O)[C@H]1CCCCCCC(=O)O (relative stereo) [20-methyl-9-oxo-13-trans-prostenoic acid],0.5 to 2

# System: Microsporum gypseum ATCC 14683
# Experiment: agar-dilution streak-plate antimicrobial assay
# Format: cell-based
# Settings: Nannizzia gypsea, ATCC14683, read-out: Minimal inhibitory conc. (2)
# Procedure, shortened: (§1)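 Stock 2.5 mg/ml → two-fold serial dilutions → 1 ml each into 9 ml warm agar (bacterial or fungal medium) → loop streak of overnight broth culture or spore suspension → incubate → visual read. MIC = complete inhibition, µg/ml.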
row,MIC [µg/mL],Structure (SMILES)
1,250,"CCC/C=C/[C@H]1CCC(=O)[C@@H]1CCCCCCC(=O)O (relative stereo) [9-oxo-18,19,20-trinor-13-trans-prostenoic acid]"
2,50,CCCCC/C=C/[C@H]1CCC(=O)[C@@H]1CCCCCCC(=O)O (relative stereo) [9-oxo-20-nor-13-trans-prostenoic acid]
3,250,"O=C(O)CCCCCC[C@@H]1C(=O)CC[C@H]1/C=C/CCCCl (relative stereo) [20-chloro-9-oxo-17,18,19-trinor-13-trans-prostenoic acid]"
4,50,CCCCCCC/C=C/[C@@H]1CCC(=O)[C@H]1CCCCCCC(=O)O (relative stereo) [20-methyl-9-oxo-13-trans-prostenoic acid]

# System: Microsporum canis ATCC 10214
# Experiment: agar-dilution streak-plate antimicrobial assay
# Format: cell-based
# Settings: ATCC10214, read-out: Minimal inhibitory conc. (1)
# Procedure, shortened: as §1
row,MIC [µg/mL],Structure (SMILES)
1,50,CCCCC/C=C/[C@H]1CCC(=O)[C@@H]1CCCCCCC(=O)O (relative stereo) [9-oxo-20-nor-13-trans-prostenoic acid]
2,250,"O=C(O)CCCCCC[C@@H]1C(=O)CC[C@H]1/C=C/CCCCl (relative stereo) [20-chloro-9-oxo-17,18,19-trinor-13-trans-prostenoic acid]"
3,100,CCCCCCC/C=C/[C@@H]1CCC(=O)[C@H]1CCCCCCC(=O)O (relative stereo) [20-methyl-9-oxo-13-trans-prostenoic acid]

# System: Streptococcus pyogenes C 203
# Experiment: agar-dilution streak-plate antimicrobial assay
# Format: cell-based
# Settings: C203, read-out: Minimal inhibitory conc. (8)
# Procedure, shortened: as §1
row,MIC [µg/mL],Structure (SMILES)
1,250,"CCC/C=C/[C@H]1CCC(=O)[C@@H]1CCCCCCC(=O)O (relative stereo) [9-oxo-18,19,20-trinor-13-trans-prostenoic acid]"
2,62,CCCCC/C=C/[C@H]1CCC(=O)[C@@H]1CCCCCCC(=O)O (relative stereo) [9-oxo-20-nor-13-trans-prostenoic acid]
3,10,CCCCCCC/C=C/[C@@H]1CCC(=O)[C@H]1CCCCCCC(=O)O (relative stereo) [20-methyl-9-oxo-13-trans-prostenoic acid]

# System: Staphylococcus aureus Rose ATCC 14154
# Experiment: agar-dilution streak-plate antimicrobial assay
# Format: cell-based
# Settings: ATCC14154, read-out: Minimal inhibitory conc. (7)
# Procedure, shortened: as §1
row,MIC [µg/mL],Structure (SMILES)
1,250,CCCCC/C=C/[C@H]1CCC(=O)[C@@H]1CCCCCCC(=O)O (relative stereo) [9-oxo-20-nor-13-trans-prostenoic acid]
2,50,CCCCCCC/C=C/[C@@H]1CCC(=O)[C@H]1CCCCCCC(=O)O (relative stereo) [20-methyl-9-oxo-13-trans-prostenoic acid]

# System: Trichophyton rubrum E 97
# Experiment: agar-dilution streak-plate antimicrobial assay
# Format: cell-based
# Settings: E97, read-out: Minimal inhibitory conc. (5)
# Procedure, shortened: as §1
row,MIC [µg/mL],Structure (SMILES)
1,50,CCCCC/C=C/[C@H]1CCC(=O)[C@@H]1CCCCCCC(=O)O (relative stereo) [9-oxo-20-nor-13-trans-prostenoic acid]
2,250,"O=C(O)CCCCCC[C@@H]1C(=O)CC[C@H]1/C=C/CCCCl (relative stereo) [20-chloro-9-oxo-17,18,19-trinor-13-trans-prostenoic acid]"
3,100,CCCCCCC/C=C/[C@@H]1CCC(=O)[C@H]1CCCCCCC(=O)O (relative stereo) [20-methyl-9-oxo-13-trans-prostenoic acid]

# System: Trichophyton tonsurans NIH 662
# Experiment: agar-dilution streak-plate antimicrobial assay
# Format: cell-based
# Settings: NIH662, read-out: Minimal inhibitory conc. (3)
# Procedure, shortened: as §1
row,MIC [µg/mL],Structure (SMILES)
1,250,"CCC/C=C/[C@H]1CCC(=O)[C@@H]1CCCCCCC(=O)O (relative stereo) [9-oxo-18,19,20-trinor-13-trans-prostenoic acid]"
2,25,CCCCC/C=C/[C@H]1CCC(=O)[C@@H]1CCCCCCC(=O)O (relative stereo) [9-oxo-20-nor-13-trans-prostenoic acid]
3,250,"O=C(O)CCCCCC[C@@H]1C(=O)CC[C@H]1/C=C/CCCCl (relative stereo) [20-chloro-9-oxo-17,18,19-trinor-13-trans-prostenoic acid]"
4,25,CCCCCCC/C=C/[C@@H]1CCC(=O)[C@H]1CCCCCCC(=O)O (relative stereo) [20-methyl-9-oxo-13-trans-prostenoic acid]

# System: Mycobacterium smegmatis ATCC 606
# Experiment: agar-dilution streak-plate antimicrobial assay
# Format: cell-based
# Settings: Mycolicibacterium smegmatis, ATCC606, read-out: Minimal inhibitory conc. (6)
# Procedure, shortened: as §1
row,MIC [µg/mL],Structure (SMILES)
1,62,CCCCC/C=C/[C@H]1CCC(=O)[C@@H]1CCCCCCC(=O)O (relative stereo) [9-oxo-20-nor-13-trans-prostenoic acid]
2,25,CCCCCCC/C=C/[C@@H]1CCC(=O)[C@H]1CCCCCCC(=O)O (relative stereo) [20-methyl-9-oxo-13-trans-prostenoic acid]

# System: Trichophyton mentagrophytes E 11
# Experiment: agar-dilution streak-plate antimicrobial assay
# Format: cell-based
# Settings: E11, read-out: Minimal inhibitory conc. (4)
# Procedure, shortened: as §1
row,MIC [µg/mL],Structure (SMILES)
1,250,"CCC/C=C/[C@H]1CCC(=O)[C@@H]1CCCCCCC(=O)O (relative stereo) [9-oxo-18,19,20-trinor-13-trans-prostenoic acid]"
2,25,CCCCC/C=C/[C@H]1CCC(=O)[C@@H]1CCCCCCC(=O)O (relative stereo) [9-oxo-20-nor-13-trans-prostenoic acid]
3,250,"O=C(O)CCCCCC[C@@H]1C(=O)CC[C@H]1/C=C/CCCCl (relative stereo) [20-chloro-9-oxo-17,18,19-trinor-13-trans-prostenoic acid]"
4,25,CCCCCCC/C=C/[C@@H]1CCC(=O)[C@H]1CCCCCCC(=O)O (relative stereo) [20-methyl-9-oxo-13-trans-prostenoic acid]
